Source: ChEMBL document CHEMBL5233277, “Oxidative Metabolism as a Modulator of Kratom's Biological Actions” (J Med Chem, 2021)
Active and inactive are the calls of the source. The calls are words filed in the database; no cut-off is given here.

Columns and labels:
Mus musculus [1] = test: Antinociceptive activity in MOR knock out 129Sv6 mouse at 10 mg/kg, po measured after 15 mins; type: functional, organism-based
[2] = Drug concentration in 129Sv6 mouse brain at 10 mg/kg, sc measured after 15 mins by LC-MS/MS analysis; type: ADME, organism-based; settings: read-out: Ct
[3] = Drug metabolism in 129Sv6 mouse plasma assessed as mitragynine pseudoindoxyl formation at 10 mg/kg, po measured after 15 mins by LC-MS/MS analysis; type: ADME, organism-based; settings: in vivo, 0.25 h
Mus musculus [4] = test: Antinociceptive activity in DOR knock out 129Sv6 mouse at 10 mg/kg, po measured after 15 mins; type: functional, organism-based
[5] = Drug metabolism in 129Sv6 mouse plasma assessed as 3-dehydromitragynine formation at ED80, po; type: ADME, cell-free
Mus musculus [6] = test: Antinociceptive activity in po dosed 129Sv6 mouse model assessed as time required for peak effect at ED50 by radiant heat tail flick assay; type: functional
Mus musculus [7] = test: Antinociceptive activity in KOR knock out C57BL/6J mouse at 45 mg/kg, po measured after 20 mins; type: functional, organism-based
[8] = Drug metabolism in C57BL/6J mouse liver microsomes assessed as mitragynine pseudoindoxyl formation at 1 uM incubated for 60 mins by LC-MS/MS analysis; type: ADME, Microsome; settings: 1 h
[9] = Drug metabolism in human S9 fraction assessed as 3-dehydromitragynine formation at 1 uM incubated for 60 mins in presence of NADPH by LC-MS/MS analysis; type: ADME, subcellular; settings: s9, 1 h
[10] = Drug concentration in C57BL/6J mouse brain at 30 mg/kg, po measured after 24 hrs by LC-MS/MS analysis; type: ADME, organism-based; settings: in vivo, BLD = below limit of detection
[11] = Drug metabolism in human liver microsomes assessed as 3-dehydromitragynine formation at 1 uM incubated for 60 mins in presence of NADPH by LC-MS/MS analysis; type: ADME, Microsome; settings: 1 h
[12] = Drug metabolism in human S9 fraction assessed as mitragynine pseudoindoxyl formation at 1 uM incubated for 60 mins in presence of NADPH by LC-MS/MS analysis; type: ADME, subcellular; settings: s9, 1 h
[13] = Drug metabolism in human S9 fraction assessed as compound depletion at 1 uM incubated for 60 mins in presence of NADPH by LC-MS/MS analysis; type: ADME, subcellular; settings: s9, 1 h
[14] = Drug metabolism in human liver microsomes assessed as mitragynine pseudoindoxyl formation at 1 uM incubated for 60 mins by LC-MS/MS analysis; type: ADME, Microsome; settings: 1 h
[15] = Drug metabolism in C57BL/6J mouse plasma assessed as 3-dehydromitragynine formation at ED80, po; type: ADME, cell-free
[16] = Drug metabolism in human liver microsomes assessed as 3-dehydromitragynine formation at 1 uM incubated for 60 mins in absence of NADPH by LC-MS/MS analysis; type: ADME, Microsome; settings: 1 h
[17] = Drug metabolism in 129Sv6 mouse brain assessed as 3-dehydromitragynine formation at ED80, po; type: ADME, tissue-based
Mus musculus [18] = test: Antinociceptive activity in MOR knock out C57BL/6J mouse at 45 mg/kg, po measured after 20 mins; type: functional, organism-based
[19] = Drug concentration in C57BL/6J mouse plasma at 30 mg/kg, po measured after 24 hrs by LC-MS/MS analysis; type: ADME, organism-based; settings: in vivo, BLD = below limit of detection
[20] = Drug metabolism in C57BL/6J mouse brain assessed as 3-dehydromitragynine formation at ED80, po; type: ADME, tissue-based
[21] = Drug metabolism in C57BL/6J mouse liver microsomes assessed as 3-dehydromitragynine formation at 1 uM incubated for 60 mins by LC-MS/MS analysis; type: ADME, Microsome; settings: 1 h
[22] = Drug metabolism in C57BL/6J mouse plasma assessed as mitragynine pseudoindoxyl formation at 30 mg/kg, po measured after 8 hrs by LC-MS/MS analysis; type: ADME, organism-based; settings: in vivo
[23] = Toxicity in C57BL/6J mouse assessed as effect on locomotion at 20 mg/kg, po measured after 3 hrs; type: organism-based; settings: in vivo
[24] = Drug metabolism in human liver microsomes assessed as mitragynine pseudoindoxyl formation at 1 uM incubated for 60 mins in presence of ketoconazole by LC-MS/MS analysis; type: ADME, Microsome; settings: 1 h
[25] = Drug concentration in 129Sv6 mouse brain at 10 mg/kg, po measured after 15 mins by LC-MS/MS analysis; type: ADME, organism-based; settings: read-out: Ct
Mus musculus [26] = test: Antinociceptive activity in KOR knock out 129Sv6 mouse at 10 mg/kg, po measured after 15 mins; type: functional, organism-based
[27] = Drug metabolism in C57BL/6J mouse liver microsomes assessed as mitragynine pseudoindoxyl formation at 1 uM incubated for 60 mins in presence of ketoconazole by LC-MS/MS analysis; type: ADME, Microsome; settings: 1 h
[28] = Drug metabolism in C57BL/6J mouse brain assessed as mitragynine pseudoindoxyl formation at 30 mg/kg, po measured after 8 hrs by LC-MS/MS analysis; type: ADME, organism-based; settings: in vivo
[29] = Drug metabolism in human S9 fractions assessed as 3-dehydromitragynine formation at 1 uM incubated for 60 mins in absence of NADPH by LC-MS/MS analysis; type: ADME, subcellular, S9 fraction; settings: s9, 1 h
Mus musculus [30] = test: Antinociceptive activity in sc dosed 129Sv6 mouse model assessed as time required for peak effect at ED50 by radiant heat tail flick assay; type: functional
[31] = Stability in C57BL/6J mouse liver microsomes assessed as half life at 1 uM incubated for 60 mins by LC-MS/MS analysis; type: ADME, Microsome; settings: 1 h
Cytochrome P450 3A [32] = target: T1, Cytochrome P450 3A (Mus musculus, UniProt O09158+Q64464+Q64481+Q9JMA7); test: Metabolic stability in C57BL/6J mouse liver microsomes assessed as CYP3A-mediated decomposition by measuring half life at 1 uM incubated for 60 mins in presence of ketoconazole by LC-MS/MS analysis; type: ADME, Microsome; settings: 1 h
Cytochrome P450 3A [33] = target: T1, Cytochrome P450 3A; test: Metabolic stability in 129Sv6 mouse liver microsomes assessed as CYP3A-mediated decomposition by measuring half life at 1 uM incubated for 60 mins in presence of ketoconazole by LC-MS/MS analysis; type: ADME, Microsome; settings: 1 h
[34] = Drug metabolism in human liver microsomes assessed as 3-dehydromitragynine formation at 1 uM incubated for 60 mins by LC-MS/MS analysis; type: ADME, Microsome; settings: 1 h
[35] = Drug metabolism in human liver microsomes assessed as 3-dehydromitragynine formation at 1 uM incubated for 60 mins in presence of ketoconazole by LC-MS/MS analysis; type: ADME, Microsome; settings: 1 h
[36] = Drug metabolism in human liver microsomes assessed as compound depletion at 1 uM incubated for 60 mins in presence of NADPH by LC-MS/MS analysis; type: ADME, Microsome; settings: 1 h
[37] = Drug metabolism in 129Sv6 mouse brain assessed as mitragynine pseudoindoxyl formation at 10 mg/kg, po measured after 15 mins by LC-MS/MS analysis; type: ADME, organism-based; settings: in vivo, 0.25 h
Mus musculus [38] = test: Antinociceptive activity in po dosed C57BL/6J mouse model assessed as peak effect measured at 20 mins by radiant heat tail flick assay; type: functional
Mus musculus [39] = test: Antinociceptive activity in po dosed 129Sv6 mouse model assessed as peak effect measured at 15 mins by radiant heat tail flick assay; type: functional; settings: 129Sv6, 0.25 h
Mus musculus [40] = test: Antinociceptive activity in sc dosed 129Sv6 mouse model assessed as peak effect measured at 15 mins by radiant heat tail flick assay; type: functional; settings: 129Sv6, 0.25 h
Cytochrome P450 3A [41] = target: T1, Cytochrome P450 3A; test: Metabolic stability in CYP3A KO C57BL/6J mouse liver microsomes assessed as CYP3A-mediated decomposition by measuring half life at 1 uM incubated for 60 mins in presence of ketoconazole by LC-MS/MS analysis; type: ADME, Microsome; settings: 1 h

For `CC[C@@H]1CN2CCc3c([nH]c4cccc(OC)c34)[C@@H]2C[C@@H]1/C(=C\OC)C(=O)OC`, the Activity (Mus musculus [1]) was “inactive”, the concentration at 0.25 h [2] was 30.1 µM and the Drug metabolism [3] was 13 nM. For the same compound, the Activity (Mus musculus [4]) was “Active”, the Drug metabolism [5] was 0.028 µM and the Time (Mus musculus [6]) was 15 min. For the same compound, the Activity (Mus musculus [7]) was “Active”, the Drug metabolism [8] was “Metabolite_Detected” and the Drug metabolism [9] was “Metabolite_Detected”. For the same compound, the Ct [10] was “Bld”, the Drug metabolism [11] was “Metabolite_Detected” and the Drug metabolism [12] was “Metabolite_Detected”. For the same compound, the Drug metabolism [13] was “Metabolite_Detected”, the Drug metabolism [14] was “Metabolite_Detected” and the Drug metabolism [15] was 0.037 µM. For the same compound, the Drug metabolism [16] was “Metabolite_Detected”, the Drug metabolism [17] was 0.035 µM and the Activity (Mus musculus [18]) was “inactive”. For the same compound, the Cp [19] was “Bld”, the Drug metabolism [20] was 0.094 µM and the Drug metabolism [21] was “Metabolite_Detected”. The Drug metabolism [22] was “Metabolite_Notdetected”, the Activity [23] was “Non-Toxic” and the Drug metabolism [24] was “Metabolite_Notdetected”. The concentration at 0.25 h [25] was 12.2 µM, the Activity (Mus musculus [26]) was “Active” and the Drug metabolism [27] was “Metabolite_Notdetected”. For the same compound, the Drug metabolism [28] was “Metabolite_Notdetected”, the Drug metabolism [29] was “Metabolite_Detected” and the Time (Mus musculus [30]) was 15 min. It also gave a t1/2 [31] of 5.9 min, a t1/2 (Cytochrome P450 3A [32]) of 35.8 min and a t1/2 (Cytochrome P450 3A [33]) of 24.4 min. For the same compound, the Drug metabolism [34] was “Metabolite_Detected”, the Drug metabolism [35] was “Metabolite_Detected” and the Drug metabolism [36] was “Metabolite_Detected”. The Drug metabolism [37] was 180 nM, the ED50 (Mus musculus [38]) was 6.25 mg/kg and the ED50 (Mus musculus [39]) was 4 mg/kg. For the same compound, the ED50 (Mus musculus [40]) was 57.3 mg/kg and the t1/2 (Cytochrome P450 3A [41]) was 25.2 min.
